Reference: BigSolDB 2.1

| Compound | solubility (mole fraction) (in water, 283.15 K) | solubility (mole fraction) (in water, 288.15 K) | solubility (mole fraction) (in water, 293.15 K) | solubility (mole fraction) (in water, 298.15 K) | solubility (mole fraction) (in water, 303.15 K) | solubility (mole fraction) (in water, 308.15 K) | solubility (mole fraction) (in water, 313.15 K) | solubility (mole fraction) (in water, 318.15 K) | solubility (mole fraction) (in water, 323.15 K) | solubility (mole fraction) (in water, 328.15 K) | solubility (mole fraction) (in water, 333.15 K) | solubility (mole fraction) (in 1,4-dioxane, 283.15 K) | solubility (mole fraction) (in 1,4-dioxane, 288.15 K) | solubility (mole fraction) (in 1,4-dioxane, 293.15 K) | solubility (mole fraction) (in 1,4-dioxane, 298.15 K) | solubility (mole fraction) (in 1,4-dioxane, 303.15 K) | solubility (mole fraction) (in 1,4-dioxane, 308.15 K) | solubility (mole fraction) (in 1,4-dioxane, 313.15 K) | solubility (mole fraction) (in 1,4-dioxane, 318.15 K) | solubility (mole fraction) (in 1,4-dioxane, 323.15 K) | further results |
| --- | --- | --- | --- | --- | --- | --- | --- | --- | --- | --- | --- | --- | --- | --- | --- | --- | --- | --- | --- | --- | --- |
| O=C(O)c1cccc(Cl)c1C(=O)O | 0.00201 | 0.00221 | 0.00248 | 0.00281 | 0.00315 | 0.00346 | 0.00383 | 0.0043 | 0.00473 | 0.00517 | 0.0056 |  |  |  |  |  |  |  |  |  |  |
| O=C1OC(=O)c2c(Cl)cccc21 |  |  |  |  |  |  |  |  |  |  |  | 0.185 | 0.226 | 0.268 | 0.296 | 0.328 | 0.367 | 0.396 | 0.42 | 0.439 | solubility (mole fraction) (in acetone, 283.15 K): 0.167; solubility (mole fraction) (in acetone, 288.15 K): 0.182; solubility (mole fraction) (in acetone, 293.15 K): 0.202; solubility (mole fraction) (in acetone, 298.15 K): 0.218; solubility (mole fraction) (in acetone, 303.15 K): 0.234; solubility (mole fraction) (in acetone, 308.15 K): 0.261; solubility (mole fraction) (in acetone, 313.15 K): 0.291; solubility (mole fraction) (in acetone, 318.15 K): 0.32; solubility (mole fraction) (in acetone, 323.15 K): 0.357; solubility (mole fraction) (in ethyl acetate, 283.15 K): 0.107; solubility (mole fraction) (in ethyl acetate, 288.15 K): 0.112; solubility (mole fraction) (in ethyl acetate, 293.15 K): 0.121; solubility (mole fraction) (in ethyl acetate, 298.15 K): 0.133; solubility (mole fraction) (in ethyl acetate, 303.15 K): 0.154; solubility (mole fraction) (in ethyl acetate, 308.15 K): 0.169; solubility (mole fraction) (in ethyl acetate, 313.15 K): 0.191; solubility (mole fraction) (in ethyl acetate, 318.15 K): 0.225; solubility (mole fraction) (in ethyl acetate, 323.15 K): 0.265 |
| O=C(O)c1ccc(Cl)cc1C(=O)O | 0.0802 | 0.0913 | 0.109 | 0.125 | 0.145 | 0.169 | 0.2 | 0.226 | 0.262 | 0.299 | 0.349 |  |  |  |  |  |  |  |  |  |  |
| O=C1OC(=O)c2cc(Cl)ccc21 |  |  |  |  |  |  |  |  |  |  |  | 0.0825 | 0.0992 | 0.124 | 0.142 | 0.166 | 0.205 | 0.25 | 0.298 | 0.359 | solubility (mole fraction) (in acetone, 283.15 K): 0.201; solubility (mole fraction) (in acetone, 288.15 K): 0.222; solubility (mole fraction) (in acetone, 293.15 K): 0.246; solubility (mole fraction) (in acetone, 298.15 K): 0.287; solubility (mole fraction) (in acetone, 303.15 K): 0.316; solubility (mole fraction) (in acetone, 308.15 K): 0.369; solubility (mole fraction) (in acetone, 313.15 K): 0.427; solubility (mole fraction) (in acetone, 318.15 K): 0.473; solubility (mole fraction) (in acetone, 323.15 K): 0.522; solubility (mole fraction) (in ethyl acetate, 283.15 K): 0.178; solubility (mole fraction) (in ethyl acetate, 288.15 K): 0.184; solubility (mole fraction) (in ethyl acetate, 293.15 K): 0.206; solubility (mole fraction) (in ethyl acetate, 298.15 K): 0.228; solubility (mole fraction) (in ethyl acetate, 303.15 K): 0.261; solubility (mole fraction) (in ethyl acetate, 308.15 K): 0.293; solubility (mole fraction) (in ethyl acetate, 313.15 K): 0.326; solubility (mole fraction) (in ethyl acetate, 318.15 K): 0.377; solubility (mole fraction) (in ethyl acetate, 323.15 K): 0.437 |
